{"source": "paper PMC10004777", "about": "(Molecules, 2023)", "key": {"[1]": {"test_system": "MCF-7 breast cancer cells", "test": "Cell viability (MTT) assay, MCF-7", "format": "cell-based", "description": "MCF-7 is a commonly used tumor cell line.\n(§1) The cell lines present in this study were obtained from Procell Life Science & Technology Co. Ltd. MCF-7, HepG2 and SJSA-1 cells were cultured in DMEM medium (DMEM, Gibco) supplemented with 10% fetal bovine serum (FBS, Gibco), 1% penicillin-streptomycin (Hyclone) at 37℃ in a humid environment with 5% CO2. HK-2 cells were cultured in DMEM/F12 (1:1) medium and placed in incubators in the same environment.\n(§2) Cell viability was determined by MTT assay. MCF-7, HepG2, SJSA-1 and HK-2 cells (6 × 10^3 cells /well) were seeded in 96-well plates with serum-free medium for 24 h. […] After 48 or 72 h, 10 μL MTT (5 mg/mL, Beyotime) was added and incubated at 37 °C for 4 h. Then 100 μL of lysate was added. After complete dissolution of the crystal, the absorbance was measured at 540 nm and expressed as the average percentage of absorbance between treated and control cells. The value for control cells was set at 100%. Cell survival rate was calculated as the ratio of the absorbance of the cells and negative control after minus the blank absorbance respectively."}, "[2]": {"test_system": "osteosarcoma cell line SJSA-1", "test": "Cell viability (MTT) assay, SJSA-1", "format": "cell-based", "description": "(§3) To investigate the selectivity of these derivatives towards different tumor cell lines, we also selected HepG2 and osteosarcoma cell line SJSA-1 cells to evaluate the anti-proliferation activity of the derivatives. […] Except for compounds A2 and A11, the effects of other compounds on SJSA-1 were not strong.\nas §1, §2"}, "HK-2 cells": {"test_system": "HK-2 cells", "test": "Cell viability (MTT) assay, HK-2 normal cells (cytotoxicity)", "format": "cell-based", "description": "as §1, §2"}, "HepG2 cells": {"test_system": "HepG2 cells", "test": "Cell viability (MTT) assay, HepG2", "format": "cell-based", "description": "as §3, §1, §2"}}, "data": [{"smiles": "C[C@H](CC(=O)C[C@@H](C)[C@H]1C[C@H](O)[C@@]2(C)C3=C(C(=O)C[C@]12C)[C@@]1(C)CCC(=O)C(C)(C)[C@@H]1C[C@@H]3O)C(=O)NCc1ccc(Cl)cc1", "note": "[Compound A7, (4-Chlorobenzyl)-(7β,15α,25R)-7,15-Dihydroxy-3,11,23-Trioxolanost-8-en-26-oic Amide]", "values": [{"measurement": "melting point", "value": "188.6 to 189.4", "unit": "°C"}, {"measurement": "Viability of Cells (% of Control)", "setting": "[1]; 25 µM", "value": "73.5 ± 4.0 % of Control"}, {"measurement": "Viability of Cells (% of Control)", "setting": "[1]; 100 µM", "value": "75.1 ± 13.2 % of Control"}, {"measurement": "anti-proliferation activity on MCF-7 compared with GAA", "setting": "[1]; MCF-7, 48 h", "value": "significant anti-proliferation activities"}, {"measurement": "Viability of Cells (% of Control)", "setting": "[2]; 50 µM", "value": "81.6 ± 2.8 % of Control"}, {"measurement": "Viability of Cells (% of Control)", "setting": "[2]; 100 µM", "value": "77.1 ± 4.6 % of Control"}, {"measurement": "toxicity to HK2 cells (in words)", "setting": "HK-2 cells", "value": "some toxicity"}, {"measurement": "Viability of Cells (% of Control)", "setting": "HK-2 cells; 50 µM", "value": "86.2 ± 3.7 % of Control"}, {"measurement": "Viability of Cells (% of Control)", "setting": "HK-2 cells; 100 µM", "value": "81.3 ± 3.3 % of Control"}, {"measurement": "Viability of Cells (% of Control)", "setting": "HepG2 cells; 25 µM", "value": "73.8 ± 1.2 % of Control"}, {"measurement": "Viability of Cells (% of Control)", "setting": "HepG2 cells; 50 µM", "value": "53.4 ± 1.0 % of Control"}, {"measurement": "anti-proliferation activity on HepG2 (in words)", "setting": "HepG2 cells; HepG2, 48 h", "value": "potent anti-proliferation activity"}]}, {"smiles": "C[C@H](CC(=O)C[C@@H](C)[C@H]1C[C@H](O)[C@@]2(C)C3=C(C(=O)C[C@]12C)[C@@]1(C)CCC(=O)C(C)(C)[C@@H]1C[C@@H]3O)C(=O)Nc1ccc(Cl)cc1", "note": "[Compound A4, (4-Chlorophenyl)-(7β,15α,25R)-7,15-Dhydroxy-3,11,23-Trioxolanost-8-en-26-oic Amide]", "values": [{"measurement": "melting point", "value": "184.9 to 185.3", "unit": "°C"}, {"measurement": "Viability of Cells (% of Control)", "setting": "[1]; 25 µM", "value": "116.4 ± 4.8 % of Control"}, {"measurement": "Viability of Cells (% of Control)", "setting": "[1]; 50 µM", "value": "120.7 ± 2.0 % of Control"}, {"measurement": "Viability of Cells (% of Control)", "setting": "[1]; 100 µM", "value": "108.9 ± 1.1 % of Control"}, {"measurement": "Viability of Cells (% of Control)", "setting": "[2]; 50 µM", "value": "83.9 ± 5.4 % of Control"}, {"measurement": "Viability of Cells (% of Control)", "setting": "[2]; 100 µM", "value": "57.4 ± 4.2 % of Control"}, {"measurement": "Viability of Cells (% of Control)", "setting": "HepG2 cells; 25 µM", "value": "87.7 ± 1.9 % of Control"}, {"measurement": "Viability of Cells (% of Control)", "setting": "HepG2 cells; 50 µM", "value": "72.0 ± 1.9 % of Control"}]}, {"smiles": "CCCCNC(=O)[C@H](C)CC(=O)C[C@@H](C)[C@H]1C[C@H](O)[C@@]2(C)C3=C(C(=O)C[C@]12C)[C@@]1(C)CCC(=O)C(C)(C)[C@@H]1C[C@@H]3O", "note": "[Compound A1, (n-butyl)-(7β,15α,25R)-7,15-Dihydroxy-3,11,23-Trioxolanost-8-en-26-oic Amide]", "values": [{"measurement": "melting point", "value": "120.7 to 121.5", "unit": "°C"}, {"measurement": "Viability of Cells (% of Control)", "setting": "[1]; 25 µM", "value": "96.6 ± 6.2 % of Control"}, {"measurement": "Viability of Cells (% of Control)", "setting": "[1]; 50 µM", "value": "114.3 ± 1.2 % of Control"}, {"measurement": "Viability of Cells (% of Control)", "setting": "[1]; 100 µM", "value": "78.7 ± 3.4 % of Control"}, {"measurement": "Viability of Cells (% of Control)", "setting": "[2]; 50 µM", "value": "87.9 ± 0.9 % of Control"}, {"measurement": "Viability of Cells (% of Control)", "setting": "[2]; 100 µM", "value": "74.0 ± 3.8 % of Control"}, {"measurement": "Viability of Cells (% of Control)", "setting": "HepG2 cells; 25 µM", "value": "90.5 ± 1.1 % of Control"}, {"measurement": "Viability of Cells (% of Control)", "setting": "HepG2 cells; 50 µM", "value": "87.2 ± 3.1 % of Control"}]}, {"smiles": "C[C@H](CC(=O)C[C@@H](C)[C@H]1C[C@H](O)[C@@]2(C)C3=C(C(=O)C[C@]12C)[C@@]1(C)CCC(=O)C(C)(C)[C@@H]1C[C@@H]3O)C(=O)NCCc1ccc(Cl)cc1", "note": "[Compound A12, (4-Chlorophenethyl)-(7β,15α,25R)-7,15-Dihydroxy-3,11,23-Trioxolanost-8-en-26-oic Amide]", "values": [{"measurement": "melting point", "value": "195.4 to 196.1", "unit": "°C"}, {"measurement": "Viability of Cells (% of Control)", "setting": "[1]; 25 µM", "value": "119.0 ± 3.4 % of Control"}, {"measurement": "Viability of Cells (% of Control)", "setting": "[1]; 50 µM", "value": "110.5 ± 6.0 % of Control"}, {"measurement": "Viability of Cells (% of Control)", "setting": "[1]; 100 µM", "value": "102.9 ± 3.8 % of Control"}, {"measurement": "Viability of Cells (% of Control)", "setting": "[2]; 50 µM", "value": "73.5 ± 1.2 % of Control"}, {"measurement": "Viability of Cells (% of Control)", "setting": "[2]; 100 µM", "value": "65.5 ± 1.5 % of Control"}, {"measurement": "Viability of Cells (% of Control)", "setting": "HK-2 cells; 50 µM", "value": "124.1 ± 2.6 % of Control"}, {"measurement": "Viability of Cells (% of Control)", "setting": "HK-2 cells; 100 µM", "value": "111.2 ± 6.5 % of Control"}, {"measurement": "Viability of Cells (% of Control)", "setting": "HepG2 cells; 25 µM", "value": "29.1 ± 0.4 % of Control"}, {"measurement": "Viability of Cells (% of Control)", "setting": "HepG2 cells; 50 µM", "value": "25.6 ± 0.8 % of Control"}, {"measurement": "inhibition at 50 µM", "setting": "HepG2 cells; Homo sapiens, HepG2, 50 µM (printed: below 50 µM), 48 h, read-out: inhibition rate of HepG2", "value": 74.4, "unit": "%"}]}, {"smiles": "Cc1ccc(CCNC(=O)[C@H](C)CC(=O)C[C@@H](C)[C@H]2C[C@H](O)[C@@]3(C)C4=C(C(=O)C[C@]23C)[C@@]2(C)CCC(=O)C(C)(C)[C@@H]2C[C@@H]4O)cc1", "note": "[Compound A10, (4-Methylphenethyl)-(7β,15α,25R)-7,15-Dihydroxy-3,11,23-Trioxolanost-8-en-26-oic Amide]", "values": [{"measurement": "melting point", "value": "221.9 to 223", "unit": "°C"}, {"measurement": "Viability of Cells (% of Control)", "setting": "[1]; 25 µM", "value": "120.8 ± 4.8 % of Control"}, {"measurement": "Viability of Cells (% of Control)", "setting": "[1]; 50 µM", "value": "118.3 ± 6.0 % of Control"}, {"measurement": "Viability of Cells (% of Control)", "setting": "[1]; 100 µM", "value": "104.1 ± 2.2 % of Control"}, {"measurement": "Viability of Cells (% of Control)", "setting": "[2]; 50 µM", "value": "80.0 ± 2.7 % of Control"}, {"measurement": "Viability of Cells (% of Control)", "setting": "[2]; 100 µM", "value": "75.6 ± 4.8 % of Control"}, {"measurement": "Viability of Cells (% of Control)", "setting": "HK-2 cells; 50 µM", "value": "110.9 ± 9.6 % of Control"}, {"measurement": "Viability of Cells (% of Control)", "setting": "HK-2 cells; 100 µM", "value": "91.1 ± 5.5 % of Control"}, {"measurement": "Viability of Cells (% of Control)", "setting": "HepG2 cells; 25 µM", "value": "57.9 ± 0.5 % of Control"}, {"measurement": "Viability of Cells (% of Control)", "setting": "HepG2 cells; 50 µM", "value": "58.8 ± 1.4 % of Control"}]}]}
